Assay results reported in patent US20080269213A1, “8-Hydroxyquinoline compounds and methods thereof” (Wyeth, priority 2006, published 2008).
Where “and” joins values, the source holds several entries; their conditions need not be identical. Identical values can stand only once. Like-named read-outs stand apart in the source and are kept apart here.

Legend:
Agg-1 = biological target: T1, Agg-1 (Homo sapiens, UniProt O75173); assay: Agg-1 FRET assay; format: biochemical; conditions: for IC50: read-out: Agg1 IC50; for inhibition at 0.8 µM: @ 800 nM; for inhibition at 67 µM: @ 67000 nM
T1 sequence (O75173 213-837): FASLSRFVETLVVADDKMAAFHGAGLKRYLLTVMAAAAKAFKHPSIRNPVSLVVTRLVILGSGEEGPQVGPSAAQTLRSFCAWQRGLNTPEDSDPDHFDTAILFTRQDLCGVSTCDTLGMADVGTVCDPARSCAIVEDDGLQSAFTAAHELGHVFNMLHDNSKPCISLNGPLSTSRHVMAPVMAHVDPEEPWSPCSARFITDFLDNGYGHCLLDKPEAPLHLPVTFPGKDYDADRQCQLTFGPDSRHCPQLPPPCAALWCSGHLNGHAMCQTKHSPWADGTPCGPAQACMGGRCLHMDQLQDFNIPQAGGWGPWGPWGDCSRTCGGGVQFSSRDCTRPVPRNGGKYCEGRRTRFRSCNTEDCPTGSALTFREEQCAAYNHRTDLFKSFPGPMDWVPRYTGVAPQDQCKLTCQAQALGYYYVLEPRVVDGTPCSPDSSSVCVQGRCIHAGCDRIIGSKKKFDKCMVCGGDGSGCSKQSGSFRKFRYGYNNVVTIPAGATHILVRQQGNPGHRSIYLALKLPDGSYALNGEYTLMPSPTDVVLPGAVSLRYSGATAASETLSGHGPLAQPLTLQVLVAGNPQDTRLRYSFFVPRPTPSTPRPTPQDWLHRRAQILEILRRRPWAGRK
Description: The Agg-1/Agg-2 FRET data for N-[(8-hydroxyquinolin-2-yl)(phenyl)methyl]-2-phenoxyacetamide and 2-{[(phenoxyacetyl)amino](phenyl)methyl}quinolin-8-yl phenoxyacetate is presented in Table 1.

[1] = biological target: T2, recombinant human Aggrecanase-2 Agg2-Phe628 (Homo sapiens, UniProt Q9UNA0); assay: Aggrecanase 2 in vitro enzyme assay (Agg-2 FRET, quenched fluorescent peptide substrate); format: biochemical; design: purified recombinant human Aggrecanase-2 Agg2-Phe628 (MW=41,737); This is a truncated form of full-length human aggrecanase-2; made in house; host or cells: CHO cells; conditions: for Agg-2 FRET Median PCT INHIB: concentration not given
T2 sequence (Q9UNA0 262-628 limits assumed): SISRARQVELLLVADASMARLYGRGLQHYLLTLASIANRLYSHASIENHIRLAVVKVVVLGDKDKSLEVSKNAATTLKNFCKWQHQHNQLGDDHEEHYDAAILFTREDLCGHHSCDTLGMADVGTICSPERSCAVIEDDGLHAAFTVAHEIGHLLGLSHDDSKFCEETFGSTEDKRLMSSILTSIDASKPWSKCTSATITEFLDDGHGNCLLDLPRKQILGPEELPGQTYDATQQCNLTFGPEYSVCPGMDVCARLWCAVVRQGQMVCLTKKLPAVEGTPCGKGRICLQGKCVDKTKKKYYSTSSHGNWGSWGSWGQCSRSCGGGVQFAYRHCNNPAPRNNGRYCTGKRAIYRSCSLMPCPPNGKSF
Summary of the method: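 Kinetic fluorescence (λex 340, λem 420 nm) monitored over 40 min at 30 °C after adding 25 μM final Abz/Dnp brevican-based quenched peptide. Enzyme: recombinant truncated human Agg2-Phe628 from CHO, 0.5 μg/ml final, mixed with inhibitor first; buffer HEPES pH 7.5 with NaCl, CaCl2, CHAPS, glycerol; compounds in duplicate.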

[2] = read-out: Agg-2 FRET Median IC50
[3] = read-out: Agg-1 IC50 (μM) or % Inhibition
[4] = read-out: Agg-2 IC50 (μM) or % Inhibition

| Structure (SMILES) | IC50 (Agg-1) [nM] | IC50 ([1]; read-out: Agg2 IC50) [nM] | IC50 [1, 2] | other results |
| --- | --- | --- | --- | --- |
| O=C(COc1ccc(C2CCCC2)cc1)NC(c1ccccc1Cl)c1cc(Cl)c2cccnc2c1O (stereo not drawn) [N-[(5-chloro-8-hydroxyquinolin-7-yl)(2-chlorophenyl)methyl]-2-(4-cyclopentylphenoxy)acetamide] | > 20000 | 2400 |  |  |
| O=C(COc1ccccc1)NC(c1ccc(-c2ccccc2)o1)c1cc(Cl)c2cccnc2c1O (stereo not drawn) [N-[(5-chloro-8-hydroxyquinolin-7-yl)(5-phenyl-2-furyl)methyl]-2-phenoxyacetamide] | > 22000 | > 5000 |  | Agg-2 FRET Median PCT INHIB [1]: 54% |
| C/C=C/C(NC(=O)COc1ccccc1)c1cc(Cl)c2cccnc2c1O (stereo not drawn) [Example 187, N-[(2E)-1-(5-chloro-8-hydroxyquinolin-7-yl)but-2-en-1-yl]-2-phenoxyacetamide] |  | 2530 | 2530 nM | inhibition at 0.8 µM (Agg-1; read-out: Agg1 %): 40% |
| O=C(COc1ccccc1)NC(c1ccc(-c2ccncc2)cc1)c1cc(Cl)c2cccnc2c1O (stereo not drawn) [N-[(5-chloro-8-hydroxyquinolin-7-yl)(4-pyridin-4-ylphenyl)methyl]-2-phenoxyacetamide] | 4700 |  |  | inhibition at 0.8 µM ([1]; @ 800 nM): 48% |
| O=C(COc1ccccc1)NC(c1ccc(-n2cccn2)cc1)c1cc(Cl)c2cccnc2c1O (stereo not drawn) [Example 145, N-{(5-chloro-8-hydroxyquinolin-7-yl)[4-(1H-pyrazol-1-yl)phenyl]methyl}-2-phenoxyacetamide] | 5800 | 1200 |  |  |
| O=C(Cc1ccccc1)NC(c1ccccc1)c1cc(Cl)c2cccnc2c1O (stereo not drawn) [N-[(5-chloro-8-hydroxyquinolin-7-yl)(phenyl)methyl]-2-phenylacetamide] |  | 2530 | 2530 nM | inhibition at […] (Agg-1; @ 1200 nM, read-out: Agg1 %): 20% |
| Cn1nnc2cc(C(NC(=O)COc3ccccc3)c3cc(Cl)c4cccnc4c3O)ccc21 (stereo not drawn) [Example 177, N-[(5-chloro-8-hydroxyquinolin-7-yl)(1-methyl-1H-1,2,3-benzotriazol-5-yl)methyl]-2-phenoxyacetamide] | > 20000 | 1300 | 1300 nM |  |
| Cc1ccc(C(NC(=O)COc2ccccc2)c2cc(Cl)c3cccnc3c2O)o1 (stereo not drawn) [N-[(5-chloro-8-hydroxyquinolin-7-yl)(5-methyl-2-furyl)methyl]-2-phenoxyacetamide] | > 22000 | 2320 | 2320 nM |  |
| O=C(COc1ccccc1)NC(c1ccc2c(c1)OCO2)c1cc(Cl)c2cccnc2c1O (stereo not drawn) [N-[1,3-benzodioxol-5-yl(5-chloro-8-hydroxyquinolin-7-yl)methyl]-2-phenoxyacetamide] | > 22000 | 1560 | 1560 nM |  |
| O=C(Cc1ccccc1)NC(c1ccc(F)cc1)c1cc(Cl)c2cccnc2c1O (stereo not drawn) [N-[(5-chloro-8-hydroxyquinolin-7-yl)(4-fluorophenyl)methyl]-2-phenylacetamide] |  | 2140 | 2140 nM | inhibition at 3.7 µM (Agg-1; @ 3700 nM, read-out: Agg1 %): 33% |
| COc1cc(OCC(=O)NC(c2ccccc2)c2cc(Cl)c3cccnc3c2O)cc(OC)c1OC (stereo not drawn) [N-[(5-chloro-8-hydroxyquinolin-7-yl)(phenyl)methyl]-2-(3,4,5-trimethoxyphenoxy)acetamide] |  | 1800 |  | inhibition at 7.5 µM (Agg-1; @ 7500 nM, read-out: Agg1 %): 54% |
| O=C(CNCc1ccc2c(c1)OCO2)NC(c1ccccc1Cl)c1cc(Cl)c2cccnc2c1O (stereo not drawn) [Example 232, N2-(1,3-benzodioxol-5-ylmethyl)-N-[(5-chloro-8-hydroxyquinolin-7-yl)(2-chlorophenyl)methyl]glycinamide] | 13700 | 1800 |  |  |
| COc1ccc(C(NC(=O)Cc2ccccc2)c2cc(Cl)c3cccnc3c2O)cc1OCc1ccccc1 (stereo not drawn) [N-[[3-(benzyloxy)-4-methoxyphenyl](5-chloro-8-hydroxyquinolin-7-yl)methyl]-2-phenylacetamide] |  |  |  | inhibition at […] (Agg-1; @ 1200 nM, read-out: Agg1 %): 36%; inhibition at […] ([1]; @ 1200 nM): 47% |
| O=C(CCl)Nc1cccc(C(NC(=O)COc2ccccc2)c2cc(Cl)c3cccnc3c2O)c1 (stereo not drawn) [Example 205, 2-chloro-N-(3-{(5-chloro-8-hydroxyquinolin-7-yl)[(phenoxyacetyl)amino]methyl}phenyl)acetamide] | ~20000 | 1470 |  |  |
| O=C(COc1ccc(Br)cc1)NC(c1ccccc1)c1cc(Cl)c2cccnc2c1O (stereo not drawn) [Example 209, 2-(4-bromophenoxy)-N-[(5-chloro-8-hydroxyquinolin-7-yl)(phenyl)methyl]acetamide] |  | 18000 |  | inhibition at […] (Agg-1; @ 2500 nM, read-out: Agg1 %): 44% |
| Cc1ccsc1C(NC(=O)COc1ccccc1)c1cc(Cl)c2cccnc2c1O (stereo not drawn) [N-[(5-chloro-8-hydroxyquinolin-7-yl)(3-methyl-2-thienyl)methyl]-2-phenoxyacetamide] |  | 1370 | 1370 nM | inhibition at 33 µM (Agg-1; @ 33000 nM, read-out: Agg1 %): 33% |
| CC(C)c1ccc(OCC(=O)NC(c2ccccc2Cl)c2cc(Cl)c3cccnc3c2O)cc1 (stereo not drawn) [N-[(5-chloro-8-hydroxyquinolin-7-yl)(2-chlorophenyl)methyl]-2-(4-isopropylphenoxy)acetamide] |  | 1400 |  | inhibition at 50 µM (Agg-1; @ 50000 nM, read-out: Agg1 %): 56% |
| C=CC(NC(=O)COc1ccccc1)c1cc(Cl)c2cccnc2c1O (stereo not drawn) [Example 186, N-[1-(5-chloro-8-hydroxyquinolin-7-yl)prop-2-en-1-yl]-2-phenoxyacetamide] |  |  |  | inhibition at 0.8 µM (Agg-1; read-out: Agg1 %): 50%; inhibition at 3.7 µM ([1]; @ 3700 nM): 38% |
| O=C(COc1ccccc1)NC(c1ccc2c(c1)CCO2)c1cc(Cl)c2cccnc2c1O (stereo not drawn) [Example 170, N-[(5-chloro-8-hydroxyquinolin-7-yl)(2,3-dihydro-1-benzofuran-5-yl)methyl]-2-phenoxyacetamide] |  | 2400 |  | inhibition at 7.4 µM (Agg-1; @ 7400 nM, read-out: Agg1 %): 43% |
| O=C(CNCc1ccncc1)NC(c1ccccc1)c1cc(Cl)c2cccnc2c1O (stereo not drawn) [Example 229, N[(5-chloro-8-hydroxyquinolin-7-yl)(phenyl)methyl]-N2-(pyridin-4-ylmethyl)glycinamide] | > 67000 | > 11000 |  | Agg-2 FRET Median PCT INHIB [1]: 29% |
| CCOC(=O)Cc1cccc(C(NC(=O)COc2ccccc2)c2cc(Cl)c3cccnc3c2O)c1 (stereo not drawn) [Example 127, ethyl(3-{(5-chloro-8-hydroxyquinolin-7-yl)[(phenoxyacetyl)amino]methyl}phenyl)acetate] |  |  | 1450 nM | inhibition at 22 µM (Agg-1; @ 22000 nM, read-out: Agg1 %): 41%; inhibition at 33 µM ([1]; @ 33000 nM): 50% |
| O=C(COc1ccccc1)NC(c1ccc(F)cc1)c1cc(Cl)c2cccnc2c1O (stereo not drawn) [N-[(5-chloro-8-hydroxyquinolin-7-yl)(4-fluorophenyl)methyl]-2-phenoxyacetamide] |  | 1200 |  | inhibition at 67 µM (Agg-1; read-out: Agg1 %): 48% |
| O=C(NC(Cc1cc(Cl)c2cccnc2c1O)c1ccc(CN2CCOCC2)cc1)c1ccc(-c2ccccc2)cc1 (stereo not drawn) |  |  |  | inhibition at 22 µM (Agg-1; [3]): 59%; inhibition at 22 µM [1, 4]: 50% |
| O=C(NC(Cc1cc(Cl)c2cccnc2c1O)c1cccc(CN2CCCC2)c1)c1ccc(-c2ccccc2)cc1 (stereo not drawn) [drawing 65] |  |  |  | inhibition at 200 µM (Agg-1; [3]): 54%; inhibition at 50 µM [1, 4]: 50% |
| O=C(COc1ccccc1)NC(c1ccoc1)c1cc(Cl)c2cccnc2c1O (stereo not drawn) [N-[(5-chloro-8-hydroxyquinolin-7-yl)(3-furyl)methyl]-2-phenoxyacetamide] | > 22000 | 3460 | 3460 nM |  |
| O=C(COc1ccccc1)NC(c1ccco1)c1cc(Cl)c2cccnc2c1O (stereo not drawn) [N-[(5-chloro-8-hydroxyquinolin-7-yl)(2-furyl)methyl]-2-phenoxyacetamide] |  | 2430 | 3900 nM and 2430 nM | inhibition at 67 µM (Agg-1; read-out: Agg1 %): 51% |
| COc1ccc(C(NC(=O)COc2ccccc2)c2cc(Cl)c3cccnc3c2O)c2ccccc12 (stereo not drawn) [N-[(5-chloro-8-hydroxyquinolin-7-yl)(4-methoxy-1-naphthyl)methyl]-2-phenoxyacetamide] |  | 800 |  | inhibition at 22 µM (Agg-1; @ 22000 nM, read-out: Agg1 %): 62% |
